Target: T1, H3 (Cavia porcellus, UniProt Q9JI35)
T1 construct: Whole jejunum segments (2 cm) were prepared and mounted between two platinum electrodes; from tissue; host or cells: guinea pig jejunum (small intestine, 20-50 cm proximal to the ileocaecal valve)
Assay: H3 antagonistic effects in vitro, electrically stimulated guinea pig jejunum, versus (R)-α-methylhistamine
Format: cell-based
Conditions: (R)-α-methylhistamine as H3-agonist, pyrilamine 1·10^-5 mol/L present, Schild regression, read-out: pA2 (H3-antagonistic activity) (converted)
Experimental: Selected compounds were tested for H3 antagonistic effects in vitro, following standard methods, using the guinea pig ileum (R. C. Vollinga, O. P. Zuiderveld, H. Scheerens, A. Bast, H. Timmerman, Meth. Find. Exp. Cli. Pharmacol. 1992, 105, 747-751). Male guinea pigs weighing 300-400 g were sacrificed by a blow on the head. A portion of the small intestine, 20-50 cm proximal to the ileocaecal valve (jejunum), was removed and placed in Krebs buffer (composition (mM) NaCl 118; KCl 5.6; MgSO4 1.18; CaCl2 2.5; NaH2PO4 1.28; NaHCO3 25; glucose 5.5 and indomethacin (1 10^−6 mol/L)). […] Contractions were recorded isotonically under 1.0 g tension with Hugo Sachs Hebel-Messvorsatz (T1-2)/HF-modem (Hugo Sachs Electronik, Hugstetten, Germany) connected to a pen recorder. […] After 30 min of stimulation, five minutes before adding (R)-α-methylhistamine, pyrilamine (1.10^−5 mol/L concentration in organ bath) was added, and then cumulative concentration-response curves (half-log increments) of (R)-α-methylhistamine, H3-agonist, were recorded until no further change in response was found. Five minutes before adding the tested compounds, the pyrilamine (1 10^−5 mol/L concentration in organ bath) was added, and after 20 minutes cumulative concentration-response curves (half-log increments) of (R)-α-methylhistamine, H3-agonist, were recorded until no further change in response was found. […]

T1 sequence (Q9JI35 whole entry): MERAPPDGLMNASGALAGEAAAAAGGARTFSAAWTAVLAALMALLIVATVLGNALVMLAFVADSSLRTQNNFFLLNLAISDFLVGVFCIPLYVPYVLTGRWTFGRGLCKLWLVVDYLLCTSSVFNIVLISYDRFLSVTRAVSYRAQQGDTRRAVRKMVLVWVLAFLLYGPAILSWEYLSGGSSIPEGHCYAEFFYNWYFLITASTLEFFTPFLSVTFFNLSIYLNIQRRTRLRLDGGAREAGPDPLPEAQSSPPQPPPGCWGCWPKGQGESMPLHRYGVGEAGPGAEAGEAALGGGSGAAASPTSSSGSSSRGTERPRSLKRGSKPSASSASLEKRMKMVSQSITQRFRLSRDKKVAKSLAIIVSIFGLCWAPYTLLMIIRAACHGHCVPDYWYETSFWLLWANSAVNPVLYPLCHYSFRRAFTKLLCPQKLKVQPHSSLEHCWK

S=C(NC1CCCCC1)N1CCC(c2cnc[nH]2)CC1 [thioperamide]
Kb: 2.14 nM

Reference: US9573921B2, “Substituted N, N-dimethylaminoalkyl ethers of isoflavanone oximes as H1-receptor antagonists” (POLFARMEX S.A., priority 2013, dated 2017)
